Experimental data published in patent publication US8343988B2, “Inhibitors of histone deacetylase” (Janssen Pharmaceutica, N.V, priority 2002, dated 2013).
Values after ≈ are worked out from the molar mass of the structure shown. Read-outs that look alike come from different tables or passages of the source.

How the values were obtained:
[1] = not given; remark: listed apart in the source
[2] = target: histone deacetylase (HeLa nuclear extracts); assay: In vitro assay for inhibition of histone deacetylase; type: biochemical; settings: [3H]acetylated histone H4 peptide substrate, 30 min
Method: The in vitro assay for inhibition of histone deacetylase (see example C.1) measures the inhibition of HDAC enzymatic activity obtained with the compounds of formula (I).
HeLa nuclear extracts (supplier: Biomol) were incubated at 60 μg/ml with 2×10^−8 M of radiolabeled peptide substrate. As a substrate for measuring HDAC activity a synthetic peptide, i.e. the amino acids 14-21 of histone H4, was used. The substrate is biotinylated at the NH2-terminal part with a 6-aminohexanoic acid spacer, and is protected at the COOH-terminal part by an amide group and specifically [^3H]acetylated at lysine 16. The substrate, biotin-(6-aminohexanoic)Gly-Ala-([^3H]-acetyl-Lys-Arg-His-Arg-Lys-Val-NH2), was added in a buffer containing 25 mM Hepes, 1 M sucrose, 0.1 mg/ml BSA and 0.01% Triton X-100 at pH 7.4. After 30 min the deacetylation reaction was terminated by the addition of HCl and acetic acid. (final concentration 0.035 mM and 3.8 mM respectively). After stopping the reaction, the free ^3H-acetate was extracted with ethylacetate. After mixing and centrifugation, the radioactivity in an aliquot of the upper (organic) phase was counted in a β-counter.
For each experiment, controls (containing HeLa nuclear extract and DMSO without compound), a blank incubation (containing DMSO but no HeLa nuclear extract or compound) and samples (containing compound dissolved in DMSO and HeLa nuclear extract) were run in parallel. […] The control sample represented 100% of substrate deactylation. For each sample the radioactivity was expressed as a percentage of the mean value of the controls. […] Herein the effects of test compounds are expressed as pIC50 (the negative log value of the IC50-value).

[3] = Kinetic solubility in aqueous media; type: physicochemical; settings: aqueous buffer, kinetic from dmso stock; phosphate citrate buffer pH 7.4, turbidity by nephelometer; read-out: Solubility Score
Method: Kinetic solubility in aqueous media measures the ability of a compound to stay in aqueous solution upon dilution (see example C.3).
DMSO-stock solutions are diluted with a single aqueous buffer solvent in 3 consecutive steps. For every dilution turbidity is measured with a nephelometer.
In the first dilution step, 10 μl of a concentrated stock-solution of the active compound, solubilized in DMSO (5 mM), was added to 100 μl phosphate citrate buffer pH 7.4 and mixed. In the second dilution step, an aliquot (20 μl) of the first dilution step was further dispensed in 100 μl phosphate citrate buffer pH 7.4 and mixed. Finally, in the third dilution step, a sample (20 μl) of the second dilution step was further diluted in 100 μl phosphate citrate buffer pH 7.4 and mixed. All dilutions were performed in 96-well plates. Immediately after the last dilution step the turbidity of the three consecutive dilution steps were measured with a nephelometer. Dilution was done in triplicate for each compound to exclude occasional errors. Based on the turbidity measurements a ranking is performed into 3 classes. Compounds with high solubility obtained a score of 3 and for this compounds the first dilution is clear. Compounds with medium solubility obtained a score of 2. For these compounds the first dilution is unclear and the second dilution is clear. […] The solubility of 6 compounds was measured.

[4] = tested on: A2780 ovarian carcinoma cells; assay: Antiproliferative activity on A2780 cells (MTT); type: cell-based; settings: Homo sapiens, 96 h, four days of incubation, read-out: Cellular activity pIC50 (converted)
Method: Cellular activity of the compounds of formula (I) was determined on A2780 tumour cells using a […] assay for cell toxicity or survival (Mosmann Tim, Journal of Immunological Methods 65: 55-63, 1983)(see example C.2).
All compounds tested were dissolved in DMSO and further dilutions were made in culture medium. Final DMSO concentrations never exceeded 0.1% (v/v) in cell proliferation assays. Controls contained A2780 cells and DMSO without compound and blanks contained DMSO but no cells. MTT was dissolved at 5 mg/ml in PBS. A glycine buffer comprised of 0.1 M glycine and 0.1 M NaCl buffered to pH 10.5 with NaOH (1 N) was prepared (all reagents were from Merck).
The human A2780 ovarian carcinoma cells (a kind gift from Dr. T. C. Hamilton [Fox Chase Cancer Centre, Pennsylvania, USA]) were cultured in RPMI 1640 medium supplemented with 2 mM L-glutamine, 50 μg/ml gentamicin and 10% fetal calf serum. Cells were routinely kept as monolayer cultures at 37° C. in a humidified 5% CO2 atmosphere. Cells were passaged once a week using a trypsin/EDTA solution at a split ratio of 1:40. All media and supplements were obtained from Life Technologies. Cells were free of mycoplasma contamination as determined using the Gen-Probe Mycoplasma Tissue Culture kit (supplier: BioMérieux).
Cells were seeded in NUNC™ 96-well culture plates (Supplier: Life Technologies) and allowed to adhere to the plastic overnight. Densities used for plating were 1500 cells per well in a total volume of 200 μl medium. After cell adhesion to the plates, medium was changed and drugs and/or solvents were added to a final volume of 200 μl. Following four days of incubation, medium was replaced by 200 μl fresh medium and cell density and viability was assessed using an MTT-based assay. To each well, 25 μl MTT solution was added and the cells were further incubated for 2 hours at 37° C. The medium was then carefully aspirated and the blue MTT-formazan product was solubilized by addition of 25 μl glycine buffer followed by 100 μl of DMSO. […] Within an experiment, the results for each experimental condition are the mean of 3 replicate wells. For initial screening purposes, compounds were tested at a single fixed concentration of 10^−6 M. For active compounds, the experiments were repeated to establish full concentration-response curves. For each experiment, controls (containing no drug) and a blank incubation (containing no cells or drugs) were run in parallel. The blank value was subtracted from all control and sample values. For each sample, the mean value for cell growth (in absorbance units) was expressed as a percentage of the mean value for cell growth of the control. […] Herein the effects of test compounds are expressed as pIC50 (the negative log value of the IC50-value).

Row | Compound | Enzyme activity pIC50 [2] | IC50 [4] [nM] | also measured
1 | CCC(C)n1nc(C)n(-c2ccc(N3CCCN(c4ccc(C(=O)NO)cc4)CC3)cc2)c1=O (stereo not drawn) (hydrate or solvate) [Co. No. 1] |  |  | melting point: 182 to 184 °C
2 | O=C(NO)c1cnc(N2CCN(Cc3ccc(-c4ccc(CN5CCOCC5)cc4)o3)CC2)nc1 (hydrate or solvate) [Co. No. 9] |  |  | melting point: 140 °C
3 | COc1cc(N)c(Cl)cc1C(=O)NC1CCN(CCCOc2ccc(F)cc2)CC1OC (stereo not drawn) [Cisapride] |  |  | % metabolism ([1]; human, 15 min, 5 μM): 45%
4 | CCC(C)n1nc(C)n(-c2ccc(N3CCCN(c4ccc(C(=O)NO)cc4)CC3)cc2)c1=O (stereo not drawn) [Co. No. 1] | 5.121 | 15000 | solubility [3]: > 454 µM
5 | O=C(NO)c1ccc(N2CCN(Cc3ccccc3)CC2)cc1 [Co. No. 2] | 6.377 | 9120 | melting point: 196 °C; solubility [3]: > 454 µM
6 | O=C(NO)c1cnc(N2CCN(C3CCN(S(=O)(=O)c4ccc5ccccc5c4)CC3)CC2)nc1 [Co. No. 3] | 7.28 | 964 | melting point: 210 °C; solubility [3]: < 75.8 µM
7 | O=C(NO)c1cnc(N2CCC(N3CCN(S(=O)(=O)c4ccc5ccccc5c4)CC3)CC2)nc1 [Co. No. 4] | 7.306 | 658 | melting point: 230 °C; solubility [3]: > 454 µM
8 | O=C(NO)c1cnc(N2CCN(Cc3ccc(-c4ccc(CO)cc4)o3)CC2)nc1 [Co. No. 5] | 8.035 | 153 | melting point: 219 °C; solubility [3]: > 454 µM
9 | O=C(NO)c1cnc(N2CCN(Cc3ccc4ccccc4c3)CC2)nc1 [Co. No. 6] | 8.148 | 59.3 | melting point: > 260 °C; solubility [3]: > 454 µM
10 | O=C(NO)c1cnc(N2CCN(CCc3ccc4ccccc4c3)CC2)nc1 [Co. No. 7] | 7.952 | 444 | melting point: 209 °C; solubility [3]: > 454 µM
11 | COc1cc2c(=O)n(CC3CCN(c4ncc(C(=O)NO)cn4)CC3)c(C)nc2c(OC)c1OC [Co. No. 8] | 7.365 | 372 | 
12 | O=C(NO)c1cnc(N2CCN(Cc3ccc(-c4ccc(CN5CCOCC5)cc4)o3)CC2)nc1 [Co. No. 9] | 7.889 | 97.9 | solubility [3]: > 454 µM
13 | O=C(NO)c1cnc(N2CCC(Cn3c(-c4ccccc4)nc4ccccc4c3=O)CC2)nc1 [Co. No. 10] | 7.427 | 658 | 
14 | O=C(NO)c1ccc(N2CCN(c3cccc(Cl)c3)CC2)c([N+](=O)[O-])c1 [compound 11] | <5 |  | 
15 | O=C(NO)c1ccc(N2CCN(CCCC(c3ccc(F)cc3)c3ccc(F)cc3)CC2)c([N+](=O)[O-])c1 [compound 12] | >5 |  | 
16 | O=C(NO)c1cc([N+](=O)[O-])ccc1N1CCN(c2ccccc2Cl)CC1 [compound 13] | <5 |  | 
17 | O=C(NO)c1cc([N+](=O)[O-])ccc1N1CCC(Cc2ccccc2)CC1 [compound 14] | <5 |  | 
18 | COc1ccccc1N1CCN(c2ccc(C(=O)NO)cc2[N+](=O)[O-])CC1 [compound 15] | >5 |  | 
19 | O=C(NO)c1ccc(N2CCN(C3CCCCC3)CC2)c([N+](=O)[O-])c1 [compound 16] | 5.698 |  | 
20 | O=C(NO)c1ccc(N2CCN(c3ccc(Cl)c(Cl)c3)CC2)c([N+](=O)[O-])c1 [compound 17] | >5 |  | 
21 | CCCO [propanol] |  |  | % metabolism ([1]; 15 min incubation with active microsomes, compound 5 μM): 25%

More lines, main results first:

Row | Enzyme activity pIC50 [2] | IC50 [4] [nM] | Compound | also measured
22 | >5 |  | O=C(NO)c1ccc(N2CCN(c3ccccn3)CC2)c([N+](=O)[O-])c1 [compound 18] | 
23 | >5 |  | O=C(NO)c1ccc(N2CCN(c3cccc(C(F)(F)F)c3)CC2)c([N+](=O)[O-])c1 [compound 19] | 
24 | <5 |  | O=C(NO)c1ccc(N2CCN(c3ccc(Cl)cc3)CC2)c([N+](=O)[O-])c1 [compound 20] | 
25 | 5 |  | O=C(NO)c1ccc(N2CCN(c3ncccn3)CC2)c([N+](=O)[O-])c1 [compound 21] | 
26 | >5 |  | O=C(NO)c1ccc(N2CCN(Cc3ccc4c(c3)OCO4)CC2)c([N+](=O)[O-])c1 [compound 22] | 
27 | >5 |  | O=C(NO)c1ccc(N2CCN(c3ccccc3F)CC2)c([N+](=O)[O-])c1 [compound 23] | 
28 | <5 |  | O=C(NO)c1ccc(N2CCN(Cc3ccccc3)CC2)c([N+](=O)[O-])c1 [compound 24] | 
29 | 5 |  | O=C(NO)c1ccc(N2CCN(c3ccc(C(F)(F)F)cn3)CC2)c([N+](=O)[O-])c1 [compound 25] | 
30 | >5 |  | O=C(NO)c1ccc(N2CCN(c3ccc(C(F)(F)F)cc3)CC2)c([N+](=O)[O-])c1 [compound 26] | 
31 | <5 |  | O=C(NO)c1ccc(N2CCC(Cc3ccccc3)CC2)c([N+](=O)[O-])c1 [compound 27] | 
32 | >5 |  | O=C(NO)c1ccc(N2CCC(n3c(=O)[nH]c4ccccc43)CC2)c([N+](=O)[O-])c1 [compound 28] | 
33 | <5 |  | O=C(NO)c1cccc(CN2CCN(c3cccc4ccccc34)CC2)c1 [compound 49] | solubility [3]: 75.8 to 454 µM (≈ 27.4 to 164 µg/mL)
34 | 5.206 |  | O=C(NO)c1ccc(CN2CCN(c3cccc4ccccc34)CC2)cc1 [compound 50] | solubility [3]: 75.8 to 454 µM (≈ 27.4 to 164 µg/mL)
35 | 7.561 | 1180 | Cc1nc2ccccc2c(=O)n1CC1CCN(c2ncc(C(=O)NO)cn2)CC1 [compound 51] | 
36 | 7.235 | 1170 | Cc1ccc2nc(-c3cc4ccccc4o3)n(CC3CCN(c4ncc(C(=O)NO)cn4)CC3)c(=O)c2c1 [compound 52] | 
37 | 7.295 |  | O=C(NO)c1cnc(N2CCC(Cn3c(-c4cccnc4Oc4ccccc4)nc4cccc(F)c4c3=O)CC2)nc1 [compound 53] | 
38 | 6.176 |  | O=C(NO)c1cnc(N2CCC(Cn3c(C(c4ccccc4)C4CCCC4)nc4cccc(F)c4c3=O)CC2)nc1 (stereo not drawn) [compound 54] | 
